Test results as given in patent US8735384B2, “Amino heteroaryl compounds as beta-secretase modulators and methods of use” (Amgen Inc., priority 2010, dated 2014).
Where two headings read alike, the source gives them in different places.

What was measured:
BACE1 = BACE1 (Homo sapiens, UniProt P56817); test: In vitro enzymatic BACE FRET assay; format: biochemical; settings: beta secretase enzyme 0.2 nM, FRET substrate 50 nM, pH 4.2
Outline: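 Beta-secretase (0.2 nM) was pre-incubated 1 h with serially diluted inhibitor in 0.05 M acetate pH 4.2, 10% DMSO, 100 uM genapol. Then 50 nM quenched peptide FRET substrate was added for 1 h. The reaction was stopped with Tris to neutral pH and fluorescence read ([…]).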

[1] = system: Aβ40 in conditioned medium of cells stably expressing Amyloid Precursor Protein (APP); test: In vitro BACE cell-based assay (HEK cell assay), Aβ40 sandwich ELISA; settings: Homo sapiens, HEK293, 24 h, inhibition of Aβ40, 24 h incubation, read-out: HEK cell assay (IC50 class)
Outline: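 APP-stably expressing cells (40K/well) grown 24 h, then treated 24 h with 10-point doses from 100 μM or 10 μM top (0.1% DMSO). Secreted Aβ40 quantified by sandwich ELISA (pAb40 capture, biotinylated 6E10 detection, europium time-resolved fluorescence); IC50 from percent inhibition versus concentration.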

[2] = read-out: BACE1 FRET assay (IC50 class)
[3] = read-out: BACE1 FRET assay (IC50, numeric)

Sequence of BACE1 (P56817 46-501, species assumed): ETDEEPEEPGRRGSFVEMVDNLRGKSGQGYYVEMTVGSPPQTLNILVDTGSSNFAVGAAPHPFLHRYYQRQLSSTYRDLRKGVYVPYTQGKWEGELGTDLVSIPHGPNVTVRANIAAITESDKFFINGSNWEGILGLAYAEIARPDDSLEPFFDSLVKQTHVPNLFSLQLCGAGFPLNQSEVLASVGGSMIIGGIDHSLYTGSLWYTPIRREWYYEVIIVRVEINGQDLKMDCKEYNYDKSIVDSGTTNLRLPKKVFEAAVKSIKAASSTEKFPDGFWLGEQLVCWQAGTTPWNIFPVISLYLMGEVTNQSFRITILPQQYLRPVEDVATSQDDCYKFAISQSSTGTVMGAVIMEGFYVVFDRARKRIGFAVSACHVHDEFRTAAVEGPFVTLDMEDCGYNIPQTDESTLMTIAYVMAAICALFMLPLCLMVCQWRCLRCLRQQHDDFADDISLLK

SMILES	IC50 (BACE1; [2]) [nM]	IC50 [1] [nM]	IC50 (BACE1; [3]) [nM]
Cc1cccc(C(=O)N2CC(C)CC(C)C2)c1-c1ccc2nc(N)c(N3CCOCC3)cc2c1 (centres unmarked) [Example 88, (2-(2-amino-3-morpholinoquinolin-6-yl)-3-methylphenyl)(3,5-dimethylpiperidin-1-yl)methanone]	100 to 500	1010 to 5000	–
Cc1cccc(C(=O)N2CCSCC2)c1-c1ccc2nc(N)c(N3CCOCC3)cc2c1 [Example 91, (2-(2-amino-3-morpholinoquinolin-6-yl)-3-methylphenyl)(thiomorpholino)methanone]	< 100	1010 to 5000	–
Cc1cccc(C(=O)N2CCC[C@H]2C(F)(F)F)c1-c1ccc2nc(N)c(N3CCOCC3)cc2c1 [Example 94, (S)-(2-(2-amino-3-morpholinoquinolin-6-yl)-3-methylphenyl)(2-(trifluoromethyl)pyrrolidin-1-yl)methanone]	100 to 500	1010 to 5000	–
Cc1cccc(C(=O)N2CCC(F)CC2)c1-c1ccc2nc(N)c(N3CCOCC3)cc2c1 [Example 95, (2-(2-amino-3-morpholinoquinolin-6-yl)-3-methylphenyl)(4-fluoropiperidin-1-yl)methanone]	< 100	1010 to 5000	–
Cc1cccc(C(=O)N2CCC(C(F)(F)F)C2)c1-c1ccc2nc(N)c(N3CCOCC3)cc2c1 (centres unmarked) [Example 96, (2-(2-amino-3-morpholinoquinolin-6-yl)-3-methylphenyl)(3-(trifluoromethyl)pyrrolidin-1-yl)methanone]	< 100	1010 to 5000	–
Cc1cccc(C(=O)N(C)CC(F)(F)F)c1-c1ccc2nc(N)c(N3CCOCC3)cc2c1 [Example 100, 2-(2-amino-3-morpholinoquinolin-6-yl)-N,3-dimethyl-N-(2,2,2-trifluoroethyl)benzamide]	100 to 500	1010 to 5000	–
CCN(CC)C(=O)c1cccc(C)c1-c1ccc2nc(N)c(N3CCOCC3)cc2c1 [Example 102, 2-(2-amino-3-morpholinoquinolin-6-yl)-N,N-diethyl-3-methylbenzamide]	100 to 500	1010 to 5000	–
CCCN(CC)C(=O)c1cccc(C)c1-c1ccc2nc(N)c(N3CCOCC3)cc2c1 [Example 105, 2-(2-amino-3-morpholinoquinolin-6-yl)-N-ethyl-3-methyl-N-propylbenzamide]	501 to 1000	1010 to 5000	–
CCCN(C(=O)c1cccc(C)c1-c1ccc2nc(N)c(N3CCOCC3)cc2c1)C(C)C [Example 106, 2-(2-amino-3-morpholinoquinolin-6-yl)-N-isopropyl-3-methyl-N-propylbenzamide]	501 to 1000	> 5000	–
CCN(C(=O)c1cccc(C)c1-c1ccc2nc(N)c(N3CCOCC3)cc2c1)C1CC1 [Example 107, 2-(2-amino-3-morpholinoquinolin-6-yl)-N-cyclopropyl-N-ethyl-3-methylbenzamide]	100 to 500	1010 to 5000	–
Cc1cccc(C(=O)N2CCC(F)(F)CC2)c1-c1ccc2nc(N)c(N3CCOCC3)cc2c1 [Example 109, (2-(2-amino-3-morpholinoquinolin-6-yl)-3-methylphenyl)(4,4-difluoropiperidin-1-yl)methanone]	< 100	501 to 1000	–
CCCN(C)C(=O)c1cccc(C)c1-c1ccc2nc(N)c(N3CCOCC3)cc2c1 [Example 110, 2-(2-amino-3-morpholinoquinolin-6-yl)-N,3-dimethyl-N-propylbenzamide]	100 to 500	1010 to 5000	–
CCCN(CC1CC1)C(=O)c1cccc(C)c1-c1ccc2nc(N)c(N3CCOCC3)cc2c1 [Example 111, 2-(2-amino-3-morpholinoquinolin-6-yl)-N-(cyclopropylmethyl)-3-methyl-N-propylbenzamide]	–	> 5000	1540
Cc1cccc(C(=O)N(C)C2CCCCC2)c1-c1ccc2nc(N)c(N3CCOCC3)cc2c1 [Example 112, 2-(2-amino-3-morpholinoquinolin-6-yl)-N-cyclohexyl-N,3-dimethylbenzamide]	< 100	1010 to 5000	–
CCN(C(=O)c1cccc(C)c1-c1ccc2nc(N)c(N3CCOCC3)cc2c1)C1CCCCC1 [Example 113, 2-(2-amino-3-morpholinoquinolin-6-yl)-N-cyclohexyl-N-ethyl-3-methylbenzamide]	100 to 500	1010 to 5000	–
CSC1=NCCN1C(=O)c1cccc(C)c1-c1ccc2nc(N)c(N3CCOCC3)cc2c1 [Example 114, (2-(2-amino-3-morpholinoquinolin-6-yl)-3-methylphenyl)(2-(methylthio)-4,5-dihydro-1H-imidazol-1-yl)methanone]	–	> 5000	1140
Cc1cccc(C(=O)N2CCCC(C)C2)c1-c1ccc2nc(N)c(N3CCOCC3)cc2c1 (centres unmarked) [Example 115, (2-(2-amino-3-morpholinoquinolin-6-yl)-3-methylphenyl)(3-methylpiperidin-1-yl)methanone]	< 100	501 to 1000	–
C=CCN(CC=C)C(=O)c1cccc(C)c1-c1ccc2nc(N)c(N3CCOCC3)cc2c1 [Example 116, N,N-diallyl-2-(2-amino-3-morpholinoquinolin-6-yl)-3-methylbenzamide]	100 to 500	1010 to 5000	–
CCCCN(C)C(=O)c1cccc(C)c1-c1ccc2nc(N)c(N3CCOCC3)cc2c1 [Example 117, 2-(2-amino-3-morpholinoquinolin-6-yl)-N-butyl-N,3-dimethylbenzamide]	< 100	1010 to 5000	–
CCCCN(CC)C(=O)c1cccc(C)c1-c1ccc2nc(N)c(N3CCOCC3)cc2c1 [Example 118, 2-(2-amino-3-morpholinoquinolin-6-yl)-N-butyl-N-ethyl-3-methylbenzamide]	501 to 1000	1010 to 5000	–
Cc1cccc(C(=O)N(C)CCC(C)C)c1-c1ccc2nc(N)c(N3CCOCC3)cc2c1 [Example 119, 2-(2-amino-3-morpholinoquinolin-6-yl)-N-isopentyl-N,3-dimethylbenzamide]	100 to 500	1010 to 5000	–
CCCC(C)N(C)C(=O)c1cccc(C)c1-c1ccc2nc(N)c(N3CCOCC3)cc2c1 (centres unmarked) [Example 120, 2-(2-amino-3-morpholinoquinolin-6-yl)-N,3-dimethyl-N-(pentan-2-yl)benzamide]	< 100	1010 to 5000	–

Other lines, results leading:

IC50 (BACE1; [2]) [nM]	IC50 [1] [nM]	IC50 (BACE1; [3]) [nM]	SMILES
< 100	501 to 1000	–	Cc1cccc(C(=O)N2CCCCC2C)c1-c1ccc2nc(N)c(N3CCOCC3)cc2c1 (centres unmarked) [Example 87, (2-(2-amino-3-morpholinoquinolin-6-yl)-3-methylphenyl)(2-methylpiperidin-1-yl)methanone]
< 100	501 to 1000	–	Cc1cccc(C(=O)N2CCSC2)c1-c1ccc2nc(N)c(N3CCOCC3)cc2c1 [Example 89, (2-(2-amino-3-morpholinoquinolin-6-yl)-3-methylphenyl)(thiazolidin-3-yl)methanone]
< 100	501 to 1000	–	Cc1cccc(C(=O)N2CC=CC2)c1-c1ccc2nc(N)c(N3CCOCC3)cc2c1 [Example 90, (2-(2-amino-3-morpholinoquinolin-6-yl)-3-methylphenyl)(2,5-dihydro-1H-pyrrol-1-yl)methanone]
< 100	501 to 1000	–	Cc1cccc(C(=O)N(C)C2CCCC2)c1-c1ccc2nc(N)c(N3CCOCC3)cc2c1 [Example 92, 2-(2-amino-3-morpholinoquinolin-6-yl)-N-cyclopentyl-N,3-dimethylbenzamide]
< 100	501 to 1000	–	Cc1cccc(C(=O)N2CCC(C(C)(C)C)CC2)c1-c1ccc2nc(N)c(N3CCOCC3)cc2c1 [Example 93, (2-(2-amino-3-morpholinoquinolin-6-yl)-3-methylphenyl)(4-tert-butylpiperidin-1-yl)methanone]
< 100	501 to 1000	–	Cc1cccc(C(=O)N2CCCC(F)(F)C2)c1-c1ccc2nc(N)c(N3CCOCC3)cc2c1 [Example 97, (2-(2-amino-3-morpholinoquinolin-6-yl)-3-methylphenyl)(3,3-difluoropiperidin-1-yl)methanone]
< 100	100 to 500	–	Cc1cccc(C(=O)N2CCC(F)(F)C2)c1-c1ccc2nc(N)c(N3CCOCC3)cc2c1 [Example 98, (2-(2-amino-3-morpholinoquinolin-6-yl)-3-methylphenyl)(3,3-difluoropyrrolidin-1-yl)methanone]
100 to 500	501 to 1000	–	Cc1cccc(C(=O)N2CC(F)(F)C2)c1-c1ccc2nc(N)c(N3CCOCC3)cc2c1 [Example 99, (2-(2-amino-3-morpholinoquinolin-6-yl)-3-methylphenyl)(3,3-difluoroazetidin-1-yl)methanone]
< 100	501 to 1000	–	Cc1cccc(C(=O)N2CC[C@@H](C)C2)c1-c1ccc2nc(N)c(N3CCOCC3)cc2c1 [Example 101, (R)-(2-(2-amino-3-morpholinoquinolin-6-yl)-3-methylphenyl)(3-methylpyrrolidin-1-yl)methanone]
100 to 500	501 to 1000	–	Cc1cccc(C(=O)N2CCC2)c1-c1ccc2nc(N)c(N3CCOCC3)cc2c1 [Example 103, (2-(2-amino-3-morpholinoquinolin-6-yl)-3-methylphenyl)(azetidin-1-yl)methanone]
< 100	501 to 1000	–	Cc1cccc(C(=O)N(C)CC(C)C)c1-c1ccc2nc(N)c(N3CCOCC3)cc2c1 [Example 104, 2-(2-amino-3-morpholinoquinolin-6-yl)-N-isobutyl-N,3-dimethylbenzamide]
< 100	501 to 1000	–	C#CCN(C)C(=O)c1cccc(C)c1-c1ccc2nc(N)c(N3CCOCC3)cc2c1 [Example 108, 2-(2-amino-3-morpholinoquinolin-6-yl)-N,3-dimethyl-N-(prop-2-ynyl)benzamide]
